Calls of active or inactive are those of the source.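 The calls were made as follows: active = EC50 no more than a set limit of log units above the highest dose; inactive = the rest.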
Target: S. pyogenes SKKanGAS, kanamycin survival, BacTiterGlo, 6 h
Experiment: SKKanGAS survival reduction under kanamycin, dose response, streptokinase promoter inhibitor project, SKKanGAS strain, luminescence, dose confirmation (AID 1902);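 also: lower survival reflects blocked streptokinase promoter driving kanamycin resistance gene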

Row | Compound | EC50
1 | Nc1nc(CN2CCN(c3ccc(F)cc3)CC2)nc(N2CCCc3ccccc32)n1 | 0.178 µM
2 | CN=C1S/C(=C\c2ccc(N3CCOCC3)c(F)c2)C(=O)N1C | 4.94 µM
3 | CCCC(=O)NC(c1ccc(Cl)cc1Cl)c1ccc2cccnc2c1O (stereo unspecified) | 0.912 µM
4 | COc1ccccc1-c1n[nH]c2c1[C@H](C)CC[C@H]2C(C)C | 2.81 µM
5 | CCC/C=C(\CCC)C(NS(=O)(=O)c1ccc(C(F)(F)F)cc1)c1ccccc1 (stereo unspecified) | 3.48 µM
6 | COc1ccc2cc(C(=O)C3CCCN(Cc4cccc(C)n4)C3)ccc2c1 (stereo unspecified) | 1.84 µM
7 | C/C(=N\NC(=O)c1ccc(-c2ccccc2)cc1)C1C(=O)c2ccccc2C1=O | 1.1 µM
8 | CC(C)Sc1cc(N2CCCC2)nc(-c2ccc(F)cc2)n1 | 5.9 µM
9 | O=S(=O)(Nc1cccc2ncccc12)c1cccs1 | 2.76 µM
10 | C/C(N)=C(/C#N)C(=O)COC(=O)c1cc(-c2ccc(Br)cc2)nc2ccccc12 | 9.97 µM
11 | COc1ccccc1-n1c(SCC(=O)Nc2ccc(Br)cc2)nc(O)cc1=O | 10.3 µM
12 | COc1ccc(OC)c(C2C=C(C34CC5CC(CC(C5)C3)C4)NC(=S)N2)c1 (stereo unspecified) | 2.96 µM
13 | Cc1nn(-c2ccccc2)c(C)c1/C=N/NC(=O)c1cc(-c2ccc(Br)s2)[nH]n1 | 4.23 µM
14 | N#C/C(=C(/O)c1ccc([N+](=O)[O-])o1)c1nc2ccccc2[nH]1 | 2.05 µM
15 | Cn1c(O)c(N=Nc2nc(-c3ccccc3)cs2)c2ccccc21 | 1.2 µM
16 | COc1cccc(C(=O)Oc2ccc(/C=N/Nc3ccc(C(=O)O)cc3)cc2OC)c1 | 6.23 µM
17 | Oc1ccc(Oc2ccc(Oc3ccc(O)cc3)cc2)cc1 | 5.25 µM
18 | O=C(Nc1ccccc1Cc1ccccc1)c1ccccc1NS(=O)(=O)c1ccc(Cl)s1 | 0.59 µM
19 | COc1ccc(-c2nnc(NC(=O)c3ccc(S(=O)(=O)N4CCCc5ccccc54)cc3)o2)cc1 | 0.149 µM
20 | CC(C)(C)C1CCC2(CC1)C(C#N)=C(SCC(=O)Nc1ccccc1)NC(=O)C2C#N (stereo unspecified) | 4.25 µM
21 | COc1ccc2c(c1)C(=NNc1ccc(C(=O)O)cc1)c1cc(OC)ccc1-2 | 4.68 µM
22 | COc1ccc(O)c(C(=O)c2cc(SCC(=O)O)c3nc4sc5c(c4c(=O)n3c2)CCCC5)c1 | 4.1 µM

Row | Compound | EC50
23 | CCOC(=O)c1csc(Nc2nc3ccc(F)cc3s2)n1 | 3.21 µM
24 | CC(C)(C)c1ccc(C(=O)NCc2nnc(SCC(=O)NC3CCCC3)o2)cc1 | > 15 µM (inactive)
25 | CCCCCCn1c(=O)c(C(=O)Nc2cnccn2)c(O)c2ccccc21 | 2.98 µM
26 | O=C1NC(=S)/C(=C\c2ccc(-c3ccccc3Cl)o2)S1 | 2.94 µM
27 | CCN(CC)c1ccc(NC(=O)c2c(C)noc2C)cc1 | > 15 µM (inactive)
28 | Cc1cc(/C=C2\C(=N)N3N=C(S(C)(=O)=O)SC3=NC2=O)c(C)n1Cc1ccccc1 | 4.77 µM
29 | COc1ccc(/C=C/C(=O)NC(=S)NNC(=O)[C@H]2C[C@@H]2c2ccccc2)cc1OC | 0.362 µM
30 | Cc1ccc(N/N=C2\CS(=O)(=O)N(C)c3ccsc32)cc1 | 1.49 µM
31 | Cc1[nH]cnc1C(=O)N/N=C/c1ccc([N+](=O)[O-])s1 | 3.73 µM
32 | Oc1nc(Nc2ccccc2)sc1/C=C1\C=Nc2ccccc21 | 9.16 µM
33 | COCCCn1c(N)c(C(=O)Nc2ccccc2)c2nc3ccccc3nc21 | 11.8 µM
34 | Cc1cc(C)cc(C(=O)NC2C(=O)N3C(C(=O)O)=C(CSc4nnc(C)s4)CSC23)c1 (stereo unspecified) | 0.38 µM
35 | COc1ccc(Br)cc1/C=C/C(=O)NC(=S)Nc1ccc(Cl)c(C(=O)O)c1 | 10.5 µM
36 | COc1ccc(C(NC(C)=O)c2cc(Cl)c3cccnc3c2O)cc1OC (stereo unspecified) | 5.2 µM
37 | CCn1ccnc1CN1CCc2c([nH]c3ccccc23)C1C1CCCCC1 (stereo unspecified) | 2.02 µM
38 | O=Nc1c(-c2c(O)[nH]c3cc(Br)ccc23)[nH]c2ccccc12 | 2.95 µM
39 | CCCCn1c(NS(=O)(=O)c2ccccc2)c(S(=O)(=O)c2ccc(C)cc2)c2nc3ccccc3nc21 | 3.43 µM
40 | COc1cc(/C=C/c2ccc3cccc(O)c3n2)cc(OC)c1OC | 3.66 µM
41 | Cc1onc(-c2ccccc2)c1C(=O)NNC(=S)NC(=O)c1ccc(Cl)cc1Cl | 0.615 µM
42 | CC(C)=CCc1c(-c2ccc(O)cc2O)oc2cc3c(c(O)c2c1=O)C=CC(C)(C)O3 | 1.58 µM
43 | CCOC(=O)N1CCN(C(=O)c2ccc3c(c2)NC(=O)/C(=C\c2ccc(OC)c(OC)c2)S3)CC1 | 1.1 µM
44 | CCN1CCN(C(c2ccc(C(F)(F)F)cc2)c2ccc3cccnc3c2O)CC1 (stereo unspecified) | 1.82 µM

Row | Compound | EC50
45 | CCc1ccc(/C=C2/SC(=S)N(CC(=O)Nc3nc4ccccc4s3)C2=O)cc1 | 2.52 µM
46 | Cc1nn(-c2ccccc2)c(Cl)c1C1C(C#N)=C(N)OC2=C1C(=O)CCC2 (stereo unspecified) | 1.25 µM
47 | CCOC(=O)c1c(NC(=O)c2c(N)n(CCCOC)c3nc4ccccc4nc23)sc2c1CCCC2 | 8.85 µM
48 | Cc1ccc(S(=O)(=O)N(C)CC(=O)N2CC(C)OC(C)C2)cc1 (stereo unspecified) | > 15 µM (inactive)
49 | Cc1nc2c(-c3ccccc3)c(C)[nH]n2c(=O)c1Cc1ccccc1 | 6.27 µM
50 | Cc1cc(N2C(=O)C(O)=C(C(=O)c3cc4ccccc4o3)C2c2ccc(Br)cc2)no1 (stereo unspecified) | 1.24 µM
51 | CCCn1cc(CN2CCC(n3nccc3NC(=O)c3ccccc3)CC2)c(C)n1 | > 15 µM (inactive)
52 | Cc1cccc(NS(=O)(=O)c2ccc(C3CCCCC3)cc2)c1 | 4.82 µM
53 | c1ccc(-c2nnc(-c3c[nH]c4ccccc34)nc2-c2ccccc2)cc1 | 7.17 µM
54 | CCCc1ccc(-c2cc(N)n[nH]2)cc1 | 4.89 µM
55 | O=C(Nc1ccccc1N1CCCC1)c1ccc2c(c1)OCO2 | > 15 µM (inactive)
56 | O=C(NC(NC(=S)Nc1ccc(Cl)c(Cl)c1)C(Cl)(Cl)Cl)c1ccco1 (stereo unspecified) | 3.41 µM
57 | Cc1cc2n(n1)C(c1c[nH]c3ccccc13)Nc1ccccc1-2 (stereo unspecified) | 7.65 µM
58 | COCCn1c(N)c(C(=O)NS(=O)(=O)c2ccc(C)cc2)c(=O)[nH]c1=O | > 15 µM (inactive)
59 | Cc1ccc(NC(=O)c2nc[nH]c2C(=O)N[C@@H](C)c2ccccc2)cc1 | 1.13 µM
60 | O=C(/C=C/c1cccs1)NC(=S)NNC(=O)Cc1cccs1 | 2.56 µM
61 | Cc1cc(C(=O)OC(C(=O)Nc2cccc(C(F)(F)F)c2)c2ccccc2)c(C)o1 (stereo unspecified) | 10.1 µM
62 | COc1cc(NC(=O)c2cc3nc(-c4ccccc4)cc(-c4ccccc4)n3n2)cc(OC)c1OC | 10.1 µM
63 | CC1(C)S[C@@H]2[C@H](NC(=O)COc3ccccc3)C(=O)N2C1C(=O)OCC1CCCCC1 (stereo partly specified) | 8 µM
64 | O=[N+]([O-])c1cc(Cl)cc(/C=N\Nc2ccccn2)c1O | 2.89 µM
65 | S=C(NCCC(c1ccccc1)c1ccccc1)Nc1cccc(Cl)c1 | 5.82 µM
66 | O=C(NNC(=S)NC(=O)c1cccnc1)c1ccc(Cl)cc1 | 2.64 µM

Row | Compound | EC50
67 | CCCCCC(=O)NNC(=O)c1c(O)c2ccccc2n(CC)c1=O | 1.36 µM
68 | O=C(NC(c1ccccc1)c1cc(Cl)c2cccnc2c1O)c1cccnc1 (stereo unspecified) | 1.38 µM
69 | O=c1[nH]c(CN2CC=C(c3ccccc3)CC2)nc2scc(-c3cccs3)c12 | 3.87 µM
70 | CC(C)Cn1c2c(c(O)c(C(=O)Nc3ncccc3O)c1=O)CCCC2 | 2.35 µM
71 | CC(C)C[C@H](NC(=O)c1[nH]cnc1C(=O)Nc1ccccc1)C(=O)OC(C)(C)C | 3.8 µM
72 | COc1ccc(C(=O)CSc2[nH]c(=O)cc(C(F)(F)F)c2C#N)cc1 | 7.06 µM
73 | O=C(O)C(c1ccccc1)N1C(=O)/C(=C\c2ccc(-c3cccc(Cl)c3)o2)SC1=S (stereo unspecified) | 1.94 µM
74 | Cc1ccc(-c2cc(C(F)F)nc(N3CCC(C)CC3)n2)cc1 | 5.48 µM
75 | CCc1oc2ccccc2c1C(=O)c1cc(Br)c(O)c(Br)c1 | 6.55 µM
76 | CC(C)=CCC12Oc3cc(O)ccc3C1(O)Oc1cc3c(c(O)c1C2=O)C=CC(C)(C)O3 (stereo unspecified) | 2.4 µM
77 | CCOc1ccc(N(CC(=O)NCc2ccc(C)cc2)S(=O)(=O)c2c(C)[nH]c(=O)[nH]c2=O)cc1 | > 15 µM (inactive)
78 | CCCCCCn1c(=O)c(C(=O)Nc2ncccc2C)c(O)c2ccccc21 | 0.507 µM
79 | CCCn1c(NC(=O)c2ccc(Cl)c(S(=O)(=O)N3CCCC3)c2)nc2ccccc21 | 1.67 µM
80 | O=C(NC(=S)Nc1ccc(N2CCOCC2)c(Cl)c1)c1cccs1 | 9.89 µM
81 | N#CC1=C(N)OC2=C(CCc3ccccc32)C1c1ccccc1Cl (stereo unspecified) | 3.82 µM
82 | O=C(NCc1ccc2c(c1)OCO2)Nc1ccc(F)cc1 | > 15 µM (inactive)
83 | O=C1c2ccccc2CC1(Cc1ccccc1)Cc1ccccc1 | 4.35 µM
84 | CCCCCCSc1cc(-c2nc3cnccn3c2NCc2ccccc2)ccc1OC | 3.61 µM
85 | Cc1cc(NC(=O)/C=C/c2ccccc2Cl)n(-c2nc3ccccc3[nH]2)n1 | 1.9 µM
86 | COc1ccc(C2=NOC(CNC(N)=S)C2)cc1 (stereo unspecified) | 3.41 µM
87 | CCn1nc(-c2ccccc2)nc2c(=O)n(C)c(=O)nc1-2 | 1.54 µM
88 | Cc1ccc(N=Nc2ccc(O)c(P(=O)(c3ccccc3)c3ccccc3)c2)cc1 | 3.36 µM

Row | Compound | EC50
89 | CCn1c(=O)c(C(=O)NNC(=O)c2ccc(Cl)cc2Cl)c(O)c2ccccc21 | 1.99 µM
90 | Cc1ccc(O)c(C(=O)CC(=O)c2ccccc2Cl)c1 | 3.52 µM
91 | Cc1cc(C)nc(N/N=C/c2cc(Br)ccc2O)n1 | 12.9 µM
92 | COc1cc(/C=C2\SC(=Nc3ccccc3)N(CCc3c[nH]c4ccccc34)C2=O)ccc1OC(C)C(=O)O (stereo unspecified) | 1.42 µM
93 | N#C/C(=C(/O)CN1CCN(c2ccccc2F)CC1)c1nc(-c2ccccc2)cs1 | 12.2 µM
94 | Cc1ccc(C(=O)NC(=S)NNC(=O)c2cccc([N+](=O)[O-])c2)cc1 | 1.69 µM
95 | O=C(Nc1nnc(SCc2c(Cl)cccc2Cl)s1)C1CC(=O)N(c2ccc3c(c2)OCCO3)C1 (stereo unspecified) | 9.74 µM
96 | O=C(Nc1nnc(SCc2ccc(F)cc2)s1)c1ccccn1 | 0.382 µM
97 | CCOC(=O)c1cc(-c2ccc3c(c2)OCCO3)nc2c1c(C)nn2CCC#N | 3.42 µM
98 | CC(=O)N1c2ccc(S(=O)(=O)N3CCC(C(=O)Nc4cc(C)ccn4)CC3)cc2CC1C (stereo unspecified) | > 15 µM (inactive)
99 | CN(c1ccccc1)c1nc(N2CCCC2)nc(-n2ccnc2)n1 | 10.8 µM
100 | CCOC(=O)c1c2c(n(C)c1COC)C(=O)C(=O)c1ccc(Br)cc1-2 | 3.66 µM
101 | CC(C)=CCC/C(C)=C/Cc1c(O)ccc(C(=O)/C=C/c2ccc(O)cc2)c1O | 1.02 µM
102 | CCOC(=O)c1ccc(NC(=O)c2sc3nc4n(c(=O)c3c2C)CCC4)cc1 | 1.99 µM
103 | Cc1ccc(/C=C/C2=NN(Cc3ccc(Cl)c(Cl)c3)C(=O)CC2)cc1 | 7.83 µM
104 | S=C1NC(C23CC4CC(CC(C4)C2)C3)=CC(c2ccc3c(c2)OCO3)N1 (stereo unspecified) | 6.76 µM
105 | Cc1ccc2nc(Nc3nc(-c4ccccc4)cc(=O)[nH]3)nc(C)c2c1 | 2.64 µM
106 | O=C(NNC(=S)NC(=O)c1ccco1)c1ccc(NC(=O)c2ccccc2)cc1 | 1.21 µM

From PubChem BioAssay AID1902 (Broad Institute, 2009)
